Measured values reported in ChEMBL document CHEMBL5465560, “Selectivity Literature for EUbOPEN Chemogenomic Library” (2024).
Blank lines part the entries; values can stand above or below the molecule they belong to.

Key:
[1] = molecular target: Serine/threonine-protein kinase 10 (Homo sapiens) (UniProt O94804); assay: Selectivity interaction (Kinase panel (DSF assay)) EUB0001489b STK10
[2] = molecular target: T1, Serine/threonine-protein kinase Nek2 (Homo sapiens) (UniProt P51955); assay: Selectivity interaction (Millipore kinase profiler) EUB0000124b NEK2; details: at 10 µM
T1 sequence (whole entry): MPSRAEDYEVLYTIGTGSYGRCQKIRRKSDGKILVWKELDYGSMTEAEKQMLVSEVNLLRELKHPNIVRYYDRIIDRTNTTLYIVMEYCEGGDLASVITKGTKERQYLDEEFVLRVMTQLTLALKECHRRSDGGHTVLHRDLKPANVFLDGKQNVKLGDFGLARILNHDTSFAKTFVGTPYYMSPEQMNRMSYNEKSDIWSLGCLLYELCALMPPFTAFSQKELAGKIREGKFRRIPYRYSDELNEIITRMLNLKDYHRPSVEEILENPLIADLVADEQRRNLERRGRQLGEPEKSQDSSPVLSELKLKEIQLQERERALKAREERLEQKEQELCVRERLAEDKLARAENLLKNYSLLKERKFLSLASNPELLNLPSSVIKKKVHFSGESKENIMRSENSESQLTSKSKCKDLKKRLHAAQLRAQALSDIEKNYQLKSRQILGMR

[3] = molecular target: T2, Interleukin-1 receptor-associated kinase 4 (Homo sapiens) (UniProt Q9NWZ3); assay: Selectivity interaction (SelectScreen profiling (Invitrogen)) EUB0000607a IRAK4; details: at 2 µM
T2 sequence (whole entry): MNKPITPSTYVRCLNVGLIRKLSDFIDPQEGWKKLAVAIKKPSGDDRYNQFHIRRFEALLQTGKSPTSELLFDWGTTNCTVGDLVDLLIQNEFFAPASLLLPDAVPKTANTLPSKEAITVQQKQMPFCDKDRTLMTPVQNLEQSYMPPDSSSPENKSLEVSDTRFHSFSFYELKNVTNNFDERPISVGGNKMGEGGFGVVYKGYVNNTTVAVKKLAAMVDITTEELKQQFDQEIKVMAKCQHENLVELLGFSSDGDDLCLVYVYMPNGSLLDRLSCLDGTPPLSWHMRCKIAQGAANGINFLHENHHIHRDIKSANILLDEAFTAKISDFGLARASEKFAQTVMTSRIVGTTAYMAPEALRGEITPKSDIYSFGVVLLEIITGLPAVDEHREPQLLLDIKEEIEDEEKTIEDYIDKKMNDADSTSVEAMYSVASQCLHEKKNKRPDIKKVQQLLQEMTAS

[4] = molecular target: Serine/threonine-protein kinase 25 (Homo sapiens) (UniProt O00506); assay: Selectivity interaction (ActivX KiNativ screen (ex vivo kinase selectivity in human PBMCs)) EUB0001619a STK25; format: cell-based; details: PBMC, at 1 µM
Sequence of Serine/threonine-protein kinase 25 (Homo sapiens) (O00506 whole entry, looked up): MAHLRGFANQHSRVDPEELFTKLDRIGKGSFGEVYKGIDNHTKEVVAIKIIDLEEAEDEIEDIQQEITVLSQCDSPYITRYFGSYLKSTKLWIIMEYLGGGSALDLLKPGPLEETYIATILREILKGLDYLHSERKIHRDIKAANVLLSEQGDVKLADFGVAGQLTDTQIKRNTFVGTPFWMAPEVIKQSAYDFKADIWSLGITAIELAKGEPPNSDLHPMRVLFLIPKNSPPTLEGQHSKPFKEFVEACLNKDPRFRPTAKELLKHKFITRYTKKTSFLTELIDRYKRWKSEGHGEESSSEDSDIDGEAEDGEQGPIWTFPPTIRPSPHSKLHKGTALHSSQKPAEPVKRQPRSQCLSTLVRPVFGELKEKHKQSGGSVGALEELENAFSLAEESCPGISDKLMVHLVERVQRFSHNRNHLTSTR

[5] = molecular target: BMP-2-inducible protein kinase (Homo sapiens) (UniProt Q9NSY1); assay: Selectivity interaction (Kinase panel (DSF assay)) EUB0001558a BMP2K
Sequence of BMP-2-inducible protein kinase (Homo sapiens) (Q9NSY1 whole entry, looked up): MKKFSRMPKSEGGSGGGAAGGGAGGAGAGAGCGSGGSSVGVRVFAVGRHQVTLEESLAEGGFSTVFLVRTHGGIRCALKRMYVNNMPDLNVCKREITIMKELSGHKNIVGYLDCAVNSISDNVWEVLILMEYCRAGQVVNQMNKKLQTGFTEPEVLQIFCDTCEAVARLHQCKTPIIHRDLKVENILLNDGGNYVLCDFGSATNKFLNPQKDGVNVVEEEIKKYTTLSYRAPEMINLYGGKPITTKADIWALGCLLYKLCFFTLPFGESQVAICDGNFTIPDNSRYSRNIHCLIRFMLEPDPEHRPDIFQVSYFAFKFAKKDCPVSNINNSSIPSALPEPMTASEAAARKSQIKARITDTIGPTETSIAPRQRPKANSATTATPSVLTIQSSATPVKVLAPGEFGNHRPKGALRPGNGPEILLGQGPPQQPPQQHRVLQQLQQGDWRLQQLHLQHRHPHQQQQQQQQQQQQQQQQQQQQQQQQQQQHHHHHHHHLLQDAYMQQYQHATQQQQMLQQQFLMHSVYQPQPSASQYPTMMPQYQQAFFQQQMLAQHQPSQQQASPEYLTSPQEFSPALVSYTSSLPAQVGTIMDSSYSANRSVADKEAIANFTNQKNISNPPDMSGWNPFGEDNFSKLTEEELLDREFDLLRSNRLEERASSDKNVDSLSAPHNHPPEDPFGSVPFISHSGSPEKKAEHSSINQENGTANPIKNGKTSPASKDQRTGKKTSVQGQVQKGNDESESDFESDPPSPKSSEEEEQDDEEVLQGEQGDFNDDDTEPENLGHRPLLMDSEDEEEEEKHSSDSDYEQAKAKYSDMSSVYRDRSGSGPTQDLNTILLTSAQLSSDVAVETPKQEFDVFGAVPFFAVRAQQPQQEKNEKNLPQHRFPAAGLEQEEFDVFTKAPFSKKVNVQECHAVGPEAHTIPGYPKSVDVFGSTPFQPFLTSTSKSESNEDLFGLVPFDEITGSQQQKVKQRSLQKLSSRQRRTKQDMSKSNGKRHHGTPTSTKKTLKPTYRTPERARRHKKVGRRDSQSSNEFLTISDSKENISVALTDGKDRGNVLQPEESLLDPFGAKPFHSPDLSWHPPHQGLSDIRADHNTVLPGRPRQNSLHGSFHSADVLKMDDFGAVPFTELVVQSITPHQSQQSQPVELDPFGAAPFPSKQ

[6] = molecular target: T3, Cytoplasmic tyrosine-protein kinase BMX (Homo sapiens) (UniProt P51813); assay: Selectivity interaction (KinomeScan (DiscoverX)) EUB0000045b BMX
T3 sequence (whole entry): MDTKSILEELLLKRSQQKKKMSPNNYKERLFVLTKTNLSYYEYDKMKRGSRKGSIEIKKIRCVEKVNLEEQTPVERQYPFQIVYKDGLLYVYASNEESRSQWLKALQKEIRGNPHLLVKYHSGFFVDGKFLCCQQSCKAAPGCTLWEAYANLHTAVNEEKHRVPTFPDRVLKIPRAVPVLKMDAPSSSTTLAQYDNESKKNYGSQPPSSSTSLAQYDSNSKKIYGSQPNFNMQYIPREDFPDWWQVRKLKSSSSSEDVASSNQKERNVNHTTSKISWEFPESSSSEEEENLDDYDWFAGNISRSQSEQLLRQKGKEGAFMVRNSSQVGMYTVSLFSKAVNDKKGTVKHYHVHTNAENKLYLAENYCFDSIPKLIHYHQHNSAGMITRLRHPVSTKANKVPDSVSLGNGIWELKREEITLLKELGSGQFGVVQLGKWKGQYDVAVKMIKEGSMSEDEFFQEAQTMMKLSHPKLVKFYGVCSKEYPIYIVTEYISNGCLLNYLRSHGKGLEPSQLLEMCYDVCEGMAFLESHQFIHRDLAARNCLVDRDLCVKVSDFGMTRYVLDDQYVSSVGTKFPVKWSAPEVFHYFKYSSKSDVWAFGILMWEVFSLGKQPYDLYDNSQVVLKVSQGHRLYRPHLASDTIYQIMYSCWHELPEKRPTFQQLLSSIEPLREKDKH

[7] = molecular target: LIM domain kinase 1 (Homo sapiens) (UniProt P53667); assay: Selectivity interaction (KinomeScan (DiscoverX)) EUB0000045b LIMK1
Sequence of LIM domain kinase 1 (Homo sapiens) (P53667 whole entry, looked up, the tested form may be a part): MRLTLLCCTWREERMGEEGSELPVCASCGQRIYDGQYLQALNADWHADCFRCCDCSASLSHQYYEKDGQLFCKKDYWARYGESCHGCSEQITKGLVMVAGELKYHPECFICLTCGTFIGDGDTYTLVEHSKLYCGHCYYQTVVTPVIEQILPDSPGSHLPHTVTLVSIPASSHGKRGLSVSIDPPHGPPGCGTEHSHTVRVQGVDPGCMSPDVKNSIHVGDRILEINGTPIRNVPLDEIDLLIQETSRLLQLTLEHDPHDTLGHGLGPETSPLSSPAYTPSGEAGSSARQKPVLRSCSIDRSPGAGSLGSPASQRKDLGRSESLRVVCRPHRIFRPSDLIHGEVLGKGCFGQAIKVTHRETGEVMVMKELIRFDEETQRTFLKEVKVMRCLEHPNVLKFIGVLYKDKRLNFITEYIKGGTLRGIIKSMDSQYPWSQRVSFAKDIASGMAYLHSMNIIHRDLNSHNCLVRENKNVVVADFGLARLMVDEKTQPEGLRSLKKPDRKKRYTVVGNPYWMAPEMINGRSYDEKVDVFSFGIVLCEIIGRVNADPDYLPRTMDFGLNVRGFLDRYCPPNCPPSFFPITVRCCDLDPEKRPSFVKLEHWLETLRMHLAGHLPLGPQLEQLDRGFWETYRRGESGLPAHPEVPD

[8] = molecular target: Serine/threonine-protein kinase PAK 6 (Homo sapiens) (UniProt Q9NQU5); assay: Selectivity interaction (Upstate Kinase Profiler service (Millipore)) EUB0000056c PAK6; details: at 1 µM
Sequence of Serine/threonine-protein kinase PAK 6 (Homo sapiens) (Q9NQU5 whole entry, looked up): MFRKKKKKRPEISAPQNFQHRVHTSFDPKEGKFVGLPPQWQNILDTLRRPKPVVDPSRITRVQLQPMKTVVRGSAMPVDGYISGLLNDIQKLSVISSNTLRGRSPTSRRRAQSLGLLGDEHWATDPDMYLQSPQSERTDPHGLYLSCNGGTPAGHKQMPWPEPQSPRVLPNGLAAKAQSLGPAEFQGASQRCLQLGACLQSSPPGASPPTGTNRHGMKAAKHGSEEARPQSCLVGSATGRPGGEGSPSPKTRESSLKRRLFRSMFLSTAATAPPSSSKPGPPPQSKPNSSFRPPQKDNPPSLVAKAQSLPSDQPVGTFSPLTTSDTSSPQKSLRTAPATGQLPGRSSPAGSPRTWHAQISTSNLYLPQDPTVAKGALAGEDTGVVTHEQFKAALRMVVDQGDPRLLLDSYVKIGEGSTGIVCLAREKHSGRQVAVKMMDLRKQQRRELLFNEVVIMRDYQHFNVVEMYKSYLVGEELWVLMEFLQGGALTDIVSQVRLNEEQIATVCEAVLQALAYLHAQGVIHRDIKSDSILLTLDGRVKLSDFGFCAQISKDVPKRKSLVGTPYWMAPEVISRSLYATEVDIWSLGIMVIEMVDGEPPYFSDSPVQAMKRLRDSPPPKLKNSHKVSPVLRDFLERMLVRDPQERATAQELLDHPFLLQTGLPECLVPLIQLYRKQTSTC

[9] = molecular target: MAO-B (MAOB) (Homo sapiens, UniProt P27338); assay: Selectivity interaction (Panel of kinases, GPCRs, ion channels and transporters (enzymatic assay)) EUB0000223bCl MAOB
Sequence of MAO-B (MAOB) (P27338 whole entry): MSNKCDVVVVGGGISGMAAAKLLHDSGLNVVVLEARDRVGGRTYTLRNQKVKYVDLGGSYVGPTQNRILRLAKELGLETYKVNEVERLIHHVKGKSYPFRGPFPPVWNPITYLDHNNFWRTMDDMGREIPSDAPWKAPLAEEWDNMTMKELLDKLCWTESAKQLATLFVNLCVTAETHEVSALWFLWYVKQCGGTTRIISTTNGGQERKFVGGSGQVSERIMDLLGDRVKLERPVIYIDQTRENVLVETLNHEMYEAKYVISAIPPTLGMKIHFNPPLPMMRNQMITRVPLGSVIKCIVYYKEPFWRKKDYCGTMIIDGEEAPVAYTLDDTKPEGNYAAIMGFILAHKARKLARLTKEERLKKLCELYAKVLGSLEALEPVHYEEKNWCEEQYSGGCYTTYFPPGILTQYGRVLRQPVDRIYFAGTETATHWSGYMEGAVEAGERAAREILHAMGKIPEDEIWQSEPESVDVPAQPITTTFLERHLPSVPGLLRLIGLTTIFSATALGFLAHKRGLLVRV

[10] = molecular target: T4, Serine/threonine-protein kinase TBK1 (Homo sapiens) (UniProt Q9UHD2); assay: Selectivity interaction (KinomeScan (DiscoverX)) EUB0000666a TBK1; details: at 10 µM
T4 sequence (whole entry): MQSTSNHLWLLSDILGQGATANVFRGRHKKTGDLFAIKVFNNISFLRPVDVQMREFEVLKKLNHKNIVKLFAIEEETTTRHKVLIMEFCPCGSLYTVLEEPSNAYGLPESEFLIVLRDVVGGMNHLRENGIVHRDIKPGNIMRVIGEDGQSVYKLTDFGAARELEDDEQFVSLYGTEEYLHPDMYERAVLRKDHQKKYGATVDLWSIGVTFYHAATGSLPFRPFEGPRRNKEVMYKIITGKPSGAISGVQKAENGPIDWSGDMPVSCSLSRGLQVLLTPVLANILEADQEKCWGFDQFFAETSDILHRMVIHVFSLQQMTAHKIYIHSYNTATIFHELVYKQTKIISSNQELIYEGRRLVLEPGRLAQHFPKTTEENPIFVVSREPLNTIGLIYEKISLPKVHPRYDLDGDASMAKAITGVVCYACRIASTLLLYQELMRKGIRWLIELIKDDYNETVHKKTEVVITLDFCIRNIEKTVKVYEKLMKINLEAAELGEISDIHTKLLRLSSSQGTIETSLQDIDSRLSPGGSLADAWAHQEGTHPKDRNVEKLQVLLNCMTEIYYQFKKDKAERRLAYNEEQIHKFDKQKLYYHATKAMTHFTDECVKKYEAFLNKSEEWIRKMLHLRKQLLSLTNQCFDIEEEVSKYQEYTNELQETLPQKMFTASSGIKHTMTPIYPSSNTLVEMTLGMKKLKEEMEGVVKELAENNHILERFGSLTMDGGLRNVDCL

Sequence of Serine/threonine-protein kinase 10 (Homo sapiens) (O94804 whole entry, looked up): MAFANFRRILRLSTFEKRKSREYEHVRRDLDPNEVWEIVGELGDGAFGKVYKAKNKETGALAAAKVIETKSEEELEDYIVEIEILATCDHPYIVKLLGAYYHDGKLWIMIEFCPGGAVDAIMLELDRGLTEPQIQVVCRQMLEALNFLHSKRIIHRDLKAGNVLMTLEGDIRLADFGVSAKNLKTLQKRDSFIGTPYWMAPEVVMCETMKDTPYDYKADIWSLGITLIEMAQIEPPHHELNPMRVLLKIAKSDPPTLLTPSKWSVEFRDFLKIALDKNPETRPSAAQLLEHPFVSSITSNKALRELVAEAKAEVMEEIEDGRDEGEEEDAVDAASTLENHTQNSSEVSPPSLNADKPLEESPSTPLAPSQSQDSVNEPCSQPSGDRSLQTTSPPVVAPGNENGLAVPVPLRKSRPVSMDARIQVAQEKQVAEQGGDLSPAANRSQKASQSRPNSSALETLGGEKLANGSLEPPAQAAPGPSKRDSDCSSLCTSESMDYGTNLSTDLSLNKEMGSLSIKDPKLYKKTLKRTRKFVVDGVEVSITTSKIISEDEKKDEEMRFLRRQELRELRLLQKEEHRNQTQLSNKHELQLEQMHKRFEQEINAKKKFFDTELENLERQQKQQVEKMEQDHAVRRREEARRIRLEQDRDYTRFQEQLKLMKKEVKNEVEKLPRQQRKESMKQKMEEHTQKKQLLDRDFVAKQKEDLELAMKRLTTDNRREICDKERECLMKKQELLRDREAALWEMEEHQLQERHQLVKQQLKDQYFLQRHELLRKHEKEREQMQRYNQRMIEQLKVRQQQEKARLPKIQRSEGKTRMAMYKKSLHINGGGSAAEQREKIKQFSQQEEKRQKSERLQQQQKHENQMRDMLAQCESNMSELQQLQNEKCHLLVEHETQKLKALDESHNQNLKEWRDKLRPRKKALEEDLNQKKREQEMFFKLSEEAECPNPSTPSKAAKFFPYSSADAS

dTM [1]: 2.3 K
Compound: CN1CCN(C(=O)c2ccc3cc2OCCOCCNc2ccn4ncc-3c4n2)CC1

% of control [2]: 119%
Compound: CC(=O)Nc1cccc(-n2c(=O)n(C3CC3)c(=O)c3c(Nc4ccc(I)cc4F)n(C)c(=O)c(C)c32)c1

Compound: CNC(=O)Nc1ccc(-c2nc(N3CC4CCC(C3)O4)c3cnn(C4CCC5(CC4)OCCO5)c3n2)cc1
% of inhibition [3]: 3%

Compound: N#Cc1cccc(-c2c[nH]c3ncnc(N4CCOCC4)c23)c1
% of inhibition [4]: 39%

Compound: CC(C)(O)[C@H](F)CN1Cc2cc(NC(=O)c3cnn4cccnc34)c(N3CCOCC3)cc2C1=O
dTM [5]: 8.7 K

Compound: C=CC(=O)Nc1cc(-n2c(=O)ccc3cnc4ccc(-c5ccc(NS(C)(=O)=O)cc5)cc4c32)ccc1C
% of control ([6]; at 1 µM): 29% | % of control ([6]; at 10 µM): 6% | % of control ([7]; at 1 µM): 100% | % of control ([7]; at 10 µM): 95%

% of inhibition [8]: 9%
Compound: Cc1ccc(-c2ccc3c(ccc4sc5c(c43)NC[C@@H](C)NC5=O)n2)cn1

Compound: COc1cc(C(=O)N2CC[C@@H](O)[C@@H](N)C2)cc2nc(-c3cc4ccccc4n3CC3CC3)n(C)c12
XC50 [9]: 15.8 µM

Compound: O=C(NOC[C@H](O)CO)c1ccc(F)c(F)c1Nc1ccc(I)cc1F
% of control [10]: 85%
